The test system of assay [1] is HCMV recombinant mutant virus whose genome contains the prokaryotic beta-glucuronidase gene. Nature of the assay: microbe, parasite or virus in culture. It counts as cell-based, human cytomegalovirus. As to conditions: Human betaherpesvirus 5, Fibroblast. Summed up: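 Human foreskin fibroblasts infected with HCMV recombinant carrying beta-glucuronidase under a viral promoter (e.g. RV145) in presence of compound. At 96 h post-infection, lysates assayed for beta-glucuronidase by colorimetric or fluorogenic substrate as replication readout; IC50 estimated from varying compound amounts.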

The subject of assay [2] is HSV- I. The assay can be described thus: HSV antiviral (ELISA) assay. To be noted: read-out: IC50 (ug/ml) HSV. In kind it is cell-based. The gist of the method:
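Vero cells in DMEM with 2% FBS treated with compound 30 min before HSV-1 infection (MOI 0.006), then incubated ~24 h at 37°C. Viral replication measured by ELISA against glycoprotein D with β-galactosidase-linked secondary and fluorogenic substrate (ex 365/em 450 nm); IC50 relative to untreated fluorescence.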

Assay [3] deals with VZV strain Ellen. The assay can be described thus: VZV antiviral (ELISA) assay. In kind it is cell-based. The gist of the method: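 HFF cells infected with VZV Ellen at multiplicity below 0.1 overnight, then mixed infected/uninfected cells seeded with compound in DMEM/2% FBS and incubated three days at 37°C, 5% CO2.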
Setting [4] is: read-out: IC50 ug/ml HCMV, HCMV, human foreskin fibroblasts.
[5] abbreviates: Human alphaherpesvirus 3, HFF, read-out: % inhibition 10 ug/ml VZV.
Where [6] appears, read: Human alphaherpesvirus 3, HFF, read-out: IC50 (ug/ml) VZV.
Setting [7] is: Human alphaherpesvirus 3, HFF, read-out: IC50 (ug/ml) VZV, VZV strain Ellen, HFF cells, ELISA.
The mark [8] stands for this setting: Human alphaherpesvirus 3, VZV strain Ellen, HFF cells, ELISA, read-out: IC50 (ug/ml) VZV.

Among the data in patent EP1137645B1, “ALPHA-METHYLBENZYL-CONTAINING THIOUREA INHIBITORS OF HERPES VIRUSES CONTAINING A […] GROUP” (Wyeth, priority 1998, dated 2000) are IC50 and inhibition values, retold here.

Converted amounts (≈) assume the structure as drawn. Read-outs that look alike come from different tables or passages of the source. Bounds are passed on as bounds.

Consider `COc1ccc(C(=O)Nc2ccc(NC(=S)Nc3cc(Br)c(OC)cc3OC)cc2)cc1` [Example 830, N-{4-[3-(5-Bromo-2,4-dimethoxy-phenyl)-thioureido]-phenyl}-4-methoxy-benzamide], for which the IC50 was > 10 µg/mL in assay [1] (setting [4]); 1.5 µg/mL (≈ 2.9 µM) in assay [2] (HSV- I, Vero cells, ELISA); > 10 µg/mL in assay [3] (setting [6]). Also, the inhibition at 10 µg/mL in assay [3] (setting [5]) stood at 16%.

For `CN(c1ccc(NC(=S)Nc2ccc(NC(=O)c3ccccc3F)cc2)cc1Cl)C1CCN(Cc2ccccc2)C1` (stereo not shown) [Example 857, N-[4-(3-{4-[(1-Benzyl-pyrrolidin-3-yl)-methyl-amino]-3-chloro-phenyl)-thioureido)-phenyl]-2-fluoro-benzamide], the IC50 in assay [1] (setting [4]) came out at 6 µg/mL (≈ 10.2 µM); in assay [2] (HSV- I, Vero cells, ELISA), 2 µg/mL (≈ 3.4 µM); in assay [3] (setting [6]), 7 µg/mL (≈ 11.9 µM). The inhibition at 10 µg/mL in assay [3] (setting [5]) is 80%.

As for `CC(NC(=S)Nc1ccc(NC(=O)c2cc3ccccc3cn2)cc1)c1ccc(Br)cc1` (stereo not shown) [Example 987, Isoquinoline-3-carboxylic acid (4-{3-[1-(4-bromo-phenyl)-ethyl]-thioureido}-phenyl)-amide], the results for the IC50 in assay [1] (setting [4]), in assay [2] (Vero) and in assay [3] (setting [7]) were 1.5 µg/mL (≈ 2.97 µM), 3 µg/mL (≈ 5.94 µM) and 0.046 µg/mL (≈ 0.091 µM), respectively.

Consider `CC(NC(=S)Nc1ccc(NC(=O)c2ccccc2F)cc1)c1cccc(N(C)C)c1` (stereo not shown) [Example 794, N-(4-{3-[1-(3-Dimethylamino-phenyl)-ethyl]-thioureido}-phenyl)-2-fluoro-benzamide], for which the IC50 in assay [1] (setting [4]) stood at 6.2 µg/mL (≈ 14.2 µM); in assay [2] (Vero), 7 µg/mL (≈ 16 µM); in assay [3] (setting [7]), 0.4 µg/mL (≈ 0.916 µM).

As for `C[C@H](NC(=S)Nc1ccc(NC(=O)c2ccccc2F)cc1)c1ccc(Cl)cc1` [Example 1015, N-(4-{3-[(1S)-1-(4-Chloro-phenyl)-ethyl]-thioureido}-phenyl)-2-fluoro-benzamide], the IC50 in assay [1] (setting [4]) was 2.5 µg/mL (≈ 5.84 µM); in assay [2] (Vero), > 10 µg/mL; in assay [3] (setting [7]) it was 0.03 µg/mL (≈ 0.0701 µM).

For `COc1ccc(NC(=S)Nc2ccc(NC(=O)c3ccccc3OC)cc2)cc1Cl` [Example 818, N-{4-[3-(3-Chloro-4-methoxy-phenyl)-thioureido]-phenyl}-2-methoxy-benzamide], the IC50 was 4 µg/mL (≈ 9.05 µM) in assay [1] (setting [4]); 1.2 µg/mL (≈ 2.72 µM) in assay [2] (HSV- I, Vero cells, ELISA); > 10 µg/mL in assay [3] (setting [6]). In assay [3] (setting [5]), the inhibition at 10 µg/mL is 32%.

As to `CC(NC(=S)Nc1ccc(NC(=O)c2ccccc2Br)cc1)c1ccc(F)cc1` (stereo not shown) [Example 795, 2-Bromo-N-(4-{3-[1-(4-fluoro-phenyl)-ethyl]-thioureido}-pbenyl)-benzamide], the IC50 in assay [1] (setting [4]) is 4.1 µg/mL (≈ 8.68 µM); in assay [2] (Vero) it was 8.6 µg/mL (≈ 18.2 µM); in assay [3] (setting [7]), > 7.5 µg/mL.

On to `COc1cc(OC)c(NC(=S)Nc2ccc(NC(=O)c3ccccc3F)c(Cl)c2)cc1Cl` [Example 278, N-{2-Chloro-4-[3-(5-chloro-2,4-dimethoxy-phenyl)-thioureido]-phenyl}-2-fluoro-benzamide], for which the IC50 in assay [1] (setting [4]) is > 10 µg/mL; in assay [2] (HSV- I, Vero cells, ELISA), > 10 µg/mL; in assay [3] (setting [6]), > 10 µg/mL. In addition, the inhibition at 10 µg/mL in assay [3] (setting [5]) turned out to be 15%.

With `O=C(Nc1ccc(NC(=S)Nc2ccc(I)c(Cl)c2)cc1)c1ccccc1F` [Example 916, N-{4-[3-(3-Chloro-4-iodo-phenyl)-thioureido]-phenyl}-2-fluoro-benzamide], the IC50 is 3 µg/mL (≈ 5.71 µM) in assay [1] (setting [4]); > 10 µg/mL in assay [2] (HSV- I, Vero cells, ELISA); > 10 µg/mL in assay [3] (setting [6]). Further, in assay [3] (setting [5]), the inhibition at 10 µg/mL was found to be 30%.

Turning to `O=C(Nc1ccc(NC(=S)Nc2cc(Br)cc(C(F)(F)F)c2)cc1)c1ccccc1F` [Example 531, N-{4-[3-(3-Bromo-5-trifluoromethyl-phenyl)-thioureido]-phenyl}-2-fluoro-benzamide], the IC50 was 5 µg/mL (≈ 9.76 µM) in assay [1] (setting [4]), > 10 µg/mL in assay [2] (Vero) and 6 µg/mL (≈ 11.7 µM) in assay [3] (setting [7]).

Take `CC(NC(=S)Nc1ccc(NC(=O)c2ccccc2Cl)cc1)c1ccc(F)cc1` (stereo not shown) [Example 755, 2-Chloro-N-(4-{3-[1-(4-fluoro-phenyl)-ethyl]-thioureido}-phenyl)-benzamide]: the IC50 was > 10 µg/mL in assay [1] (setting [4]), > 10 µg/mL in assay [2] (Vero) and 7 µg/mL (≈ 16.4 µM) in assay [3] (setting [7]).

`Cc1ccccc1C(=O)Nc1ccc(NC(=S)Nc2ccc(N(C)C3CCN(C)CC3)c(Cl)c2)cc1` [Example 375, N-[4-(3-{3-Chloro-4-[methyl-(1-methyl-piperidin-4-yl)-amino]-phenyl}-thioureido)-phenyl]-2-methyl-benzamide]: the IC50 in assay [1] (setting [4]) was 1.5 µg/mL (≈ 2.87 µM); in assay [2] (HSV- I, Vero cells, ELISA), 5 µg/mL (≈ 9.58 µM); in assay [3] (setting [6]), 7 µg/mL (≈ 13.4 µM). For the same compound, the inhibition at 10 µg/mL in assay [3] (setting [5]) was 95%.

As for `COc1ccccc1C(=O)Nc1ccc(NC(=S)NC(C)c2ccc(C#N)cc2)cc1` (stereo not shown) [Example 1017, N-(4-{3-[1-(4-Cyano-phenyl}-ethyl]-thioureido}-phenyl)-2-methoxy-benzamide], the IC50 in assay [1] (setting [4]) was > 10 µg/mL; in assay [2] (Vero), > 10 µg/mL; in assay [3] (setting [7]) it was 0.3 µg/mL (≈ 0.697 µM).

As to `COc1ccc(C(=O)Nc2ccc(NC(=S)NC(C)c3ccc(F)cc3)cc2)cc1` (stereo not shown) [Example 754, N-(4-{3-[1-(4-Fluoro-phenyl)-ethyl]-thioureido}-phenyl)-4-methoxy-benzamide], the IC50 in assay [1] (setting [4]) was > 10 µg/mL; in assay [2] (Vero), > 10 µg/mL; in assay [3] (setting [7]), 0.2 µg/mL (≈ 0.472 µM).

As for `Nc1ccc(F)cc1NC(=S)Nc1ccc(NC(=O)c2ccccc2F)cc1` [Example 1007, N-{4-[3-(2-Amino-5-fluoro-phenyl)-thioureido]-phenyl}-2-fluoro-benzamide], the IC50 in assay [1] (read-out: IC50 ug/ml HCMV) was > 10 µg/mL; in assay [2] (HSV- I, Vero cells, ELISA) it was 1.2 µg/mL (≈ 3.01 µM); in assay [3] (setting [8]) it was > 10 µg/mL.

`CC(NC(=S)Nc1ccc(NC(=O)c2ccccc2F)cc1)c1ccc(Cl)cc1` (stereo not shown) [Example 781, N-(4-{3-[1-(4-Chloro-phenyl)-ethyl]-thioureido}-phenyl)-2-fluoro-benzamide]: the IC50 is 1.8 µg/mL (≈ 4.21 µM) in assay [1] (setting [4]), > 10 µg/mL in assay [2] (Vero) and 0.6 µg/mL (≈ 1.4 µM) in assay [3] (setting [7]).

Regarding `O=C(Nc1ccc(NC(=S)Nc2cccc(OC(F)(F)F)c2)cc1)c1ccccc1F` [Example 961, 2-Fluoro-N-{4-[3-(3-trifluoromethoxy-phenyl)-thioureido]-phenyl}-benzamide], the IC50 is > 10 µg/mL in assay [1] (read-out: IC50 ug/ml HCMV); > 10 µg/mL in assay [2] (HSV- I, Vero cells, ELISA); > 10 µg/mL in assay [3] (setting [8]). Besides, in assay [3] (Human alphaherpesvirus 3, read-out: % inhibition 10 ug/ml VZV, 10 ug/ml, VZV strain Ellen, HFF cells, ELISA), the inhibition at 10 µg/mL came to 53%.

In the case of `CN(C)CCSCC(=O)Nc1ccc(NC(=S)Nc2ccc(NC(=O)c3ccccc3F)cc2)cc1Cl` [Example 373, N-[4-(3-{3-Chloro-4-[2-(2-dimethylamino-ethylsulfanyl)-acetylamino]-phenyl}-thioureido)-phenyl]-2-fluoro-benzamide], the IC50 in assay [1] (setting [4]) is 6 µg/mL (≈ 10.7 µM); in assay [2] (HSV- I, Vero cells, ELISA), 9 µg/mL (≈ 16.1 µM); in assay [3] (setting [6]), > 10 µg/mL. The inhibition at 10 µg/mL in assay [3] (setting [5]) turned out to be 4%.

For the compound `Cc1ccc(NC(=S)Nc2ccc(NC(=O)c3c(F)cccc3F)cc2)cc1Cl` [Example 235, N-{4-[3-(3-Chloro-4-methyl-phenyl)-thioureido]-phenyl}-2,6-difluoro-benzamide], the IC50 was > 10 µg/mL in assay [1] (setting [4]); 0.2 µg/mL (≈ 0.463 µM) in assay [2] (HSV- I, Vero cells, ELISA); > 10 µg/mL in assay [3] (setting [6]). Moreover, the inhibition at 10 µg/mL in assay [3] (setting [5]) turned out to be 50%.

`COc1cccc(C(=O)Nc2ccc(NC(=S)Nc3ccc(OC)c(Cl)c3)cc2)c1` [Example 819, N-{4-[3-(3-Chloro-4-methoxy-phenyl)-thioureido]-phenyl}-3-methoxy-benzamide]: the IC50 in assay [1] (setting [4]) was found to be 4 µg/mL (≈ 9.05 µM); in assay [2] (HSV- I, Vero cells, ELISA), 6 µg/mL (≈ 13.6 µM); in assay [3] (setting [6]), 2.5 µg/mL (≈ 5.66 µM). Further, the inhibition at 10 µg/mL in assay [3] (setting [5]) came to 93%.
